Values joined by “and” are separate entries in the source; they are usually repeats but may differ in a detail not shown here. Identical values can stand only once. Inconclusive results and toxic doses are left out. The calls were made as follows: active = survival T/C of 150% or more; inactive = T/C below 125% in these data.
Tested on: CD2F1 mice, L1210 leukemia ip, survival T/C
Test: NCI In Vivo Anticancer Drug Screen. Data for tumor model L1210 Leukemia (intraperitoneal) in CD2F1 (CDF1) mice
Conditions: higher = longer survival
Method in brief: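 Mice carrying a transplanted tumor received test compound or vehicle alone. The value is the measurement in the treated group divided by that in the vehicle-treated control group.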

[1] = endpoint: mean survival time, dose: 100.0 mg/kg/injection, schedule: Q01DX009 (ip), vehicle: saline with Tween-80
[2] = endpoint: mean survival time, dose: 100.0 mg/kg/injection, schedule: Q04DX003 (ip), vehicle: saline with Tween-80
[3] = endpoint: mean survival time, dose: 200.0 mg/kg/injection, schedule: Q01DX009 (ip), vehicle: saline with Tween-80
[4] = endpoint: mean survival time, dose: 200.0 mg/kg/injection, schedule: Q04DX003 (ip), vehicle: saline with Tween-80
[5] = endpoint: mean survival time, dose: 400.0 mg/kg/injection, schedule: Q04DX003 (ip), vehicle: saline with Tween-80
[6] = endpoint: mean survival time, dose: 100.0 mg/kg/injection, schedule: Q01DX001 (ip), vehicle: saline
[7] = endpoint: mean survival time, dose: 200.0 mg/kg/injection, schedule: Q01DX001 (ip), vehicle: saline
[8] = endpoint: mean survival time, dose: 400.0 mg/kg/injection, schedule: Q01DX001 (ip), vehicle: saline
[9] = endpoint: mean survival time, dose: 400.0 mg/kg/injection, schedule: Q01DX009 (ip), vehicle: saline with Tween-80
[10] = endpoint: mean survival time, dose: 12.5 mg/kg/injection, schedule: Q01DX005 (ip), vehicle: water
[11] = endpoint: mean survival time, dose: 25.0 mg/kg/injection, schedule: Q01DX005 (ip), vehicle: water
[12] = endpoint: mean survival time, dose: 50.0 mg/kg/injection, schedule: Q01DX005 (ip), vehicle: water
[13] = endpoint: mean survival time, dose: 100.0 mg/kg/injection, schedule: Q01DX005 (ip), vehicle: water
[14] = endpoint: mean survival time, dose: 100.0 mg/kg/injection, schedule: Q04DX003 (ip), vehicle: saline

Measured: T/C

O=C(NN=C1CCCCC1)c1ccccc1
inactive: [1] 100 % of control | [2] 97 % of control | [3] 100 % of control | [4] 100 % of control | [5] 101 % of control

CCCC1C(CC)C=NN1C (stereo unspecified)
inactive: [6] 102 % of control | [7] 101 % of control | [8] 98 % of control

CC1OC1c1ccc(-c2ccc(C3OC3C)cc2)cc1 (stereo unspecified)
inactive: endpoint: mean survival time, dose: 150.0 mg/kg/injection, schedule: Q01DX Z (ip), vehicle: saline 101 % of control

CCC(/C=C1\Oc2ccc(-c3ccccc3)cc2N1CC)=C\c1oc2ccc(-c3ccccc3)cc2[n+]1CC
inactive: endpoint: mean survival time, dose: 4.4 mg/kg/injection, schedule: Q01DX009 (ip), vehicle: other 117 % of control

c1cc2c3c(c1)CCC3CCC2 (stereo unspecified)
inactive: [1] 96 % of control | [3] 101 % of control | [9] 90 % of control

CN(C)c1ccc(N=Nc2ccc(C(=O)Cl)cc2)cc1
inactive: endpoint: mean survival time, dose: 50.0 mg/kg/injection, schedule: Q01DX009 (ip), vehicle: Klucel (hydroxypropylcellulose) (HPC) 98 % of control | endpoint: mean survival time, dose: 100.0 mg/kg/injection, schedule: Q01DX009 (ip), vehicle: Klucel (hydroxypropylcellulose) (HPC) 91 % of control | endpoint: mean survival time, dose: 200.0 mg/kg/injection, schedule: Q01DX009 (ip), vehicle: Klucel (hydroxypropylcellulose) (HPC) 94 % of control

CCCCC(O)CCCCCCCCCC(=O)O (stereo unspecified)
inactive: [2] 97 % of control | [4] 101 % of control

CCOC(=O)c1ccccc1C(C)CC (stereo unspecified)
inactive: endpoint: mean survival time, dose: 75.0 mg/kg/injection, schedule: Q01DX001 (ip), vehicle: other 98 % of control | endpoint: mean survival time, dose: 150.0 mg/kg/injection, schedule: Q01DX001 (ip), vehicle: other 97 % of control | endpoint: mean survival time, dose: 300.0 mg/kg/injection, schedule: Q01DX001 (ip), vehicle: other 95 % of control

CC(C)=CCC(O)C1=CC(=O)c2c(O)ccc(O)c2C1=O (stereo unspecified)
inactive: endpoint: mean survival time, dose: 7.5 mg/kg/injection, schedule: Q04DX003 (ip), vehicle: saline sonified 98 % of control | endpoint: mean survival time, dose: 15.0 mg/kg/injection, schedule: Q04DX003 (ip), vehicle: saline sonified 102 % of control | endpoint: mean survival time, dose: 30.0 mg/kg/injection, schedule: Q04DX003 (ip), vehicle: saline sonified 101 % of control

CC1(C)OC2C(/C=C\C(=O)c3ccccc3)OC(n3ccc(=O)[nH]c3=O)C2O1 (stereo unspecified)
inactive: endpoint: mean survival time, dose: 12.5 mg/kg/injection, schedule: Q01DX005 (ip), vehicle: distilled water + Tween-80 102 % of control | endpoint: mean survival time, dose: 25.0 mg/kg/injection, schedule: Q01DX005 (ip), vehicle: distilled water + Tween-80 100 % of control | endpoint: mean survival time, dose: 50.0 mg/kg/injection, schedule: Q01DX005 (ip), vehicle: distilled water + Tween-80 96 % of control | endpoint: mean survival time, dose: 100.0 mg/kg/injection, schedule: Q01DX005 (ip), vehicle: distilled water + Tween-80 103 % of control

CCOC(=O)c1cnc(SC)nc1NCc1cccc(C)c1
inactive: endpoint: mean survival time, dose: 100.0 mg/kg/injection, schedule: Q01DX001 (ip), vehicle: saline with Tween-80 98 % of control | endpoint: mean survival time, dose: 200.0 mg/kg/injection, schedule: Q01DX001 (ip), vehicle: saline with Tween-80 96 % of control | endpoint: mean survival time, dose: 400.0 mg/kg/injection, schedule: Q01DX001 (ip), vehicle: saline with Tween-80 91 % of control

O=C1Nc2ccccc2/C1=C/c1c[nH]c2ccccc12
inactive: endpoint: mean survival time, dose: 50.0 mg/kg/injection, schedule: Q04DX002 (ip), vehicle: saline with Tween-80 103 % of control | endpoint: mean survival time, dose: 100.0 mg/kg/injection, schedule: Q04DX002 (ip), vehicle: saline with Tween-80 90 % of control | endpoint: mean survival time, dose: 200.0 mg/kg/injection, schedule: Q04DX002 (ip), vehicle: saline with Tween-80 107 % of control

S=[As]c1ccccc1 (stereo unspecified)
inactive: [6] 100 % of control | [7] 97 % of control | [8] 107 % of control

O=C(O)CC(=O)O.OC(CN=Cc1ccccc1)CN=Cc1ccccc1.[Pt] (stereo unspecified)
inactive: endpoint: median survival time, dose: 10.0 mg/kg/injection, schedule: Q04DX003 (ip), vehicle: distilled water + Tween-80 103 % of control | endpoint: median survival time, dose: 20.0 mg/kg/injection, schedule: Q04DX003 (ip), vehicle: distilled water + Tween-80 104 % of control | endpoint: median survival time, dose: 40.0 mg/kg/injection, schedule: Q04DX003 (ip), vehicle: distilled water + Tween-80 102 % of control | endpoint: median survival time, dose: 80.0 mg/kg/injection, schedule: Q04DX003 (ip), vehicle: distilled water + Tween-80 116 % of control and 105 % of control | endpoint: median survival time, dose: 160.0 mg/kg/injection, schedule: Q04DX003 (ip), vehicle: distilled water + Tween-80 108 % of control | endpoint: median survival time, dose: 320.0 mg/kg/injection, schedule: Q04DX003 (ip), vehicle: distilled water + Tween-80 109 % of control

NC(=O)c1cc(C(N)=O)n(C2OC(CO)C(O)C2O)n1 (stereo unspecified)
inactive: [10] 100 % of control | [11] 100 % of control | [12] 92 % of control | [13] 107 % of control | endpoint: mean survival time, dose: 200.0 mg/kg/injection, schedule: Q01DX005 (ip), vehicle: water 96 % of control

Fc1c(F)c(N(c2ccccc2)c2ccccc2)c(F)c(F)c1N(c1ccccc1)c1ccccc1
inactive: [2] 95 % of control | [4] 95 % of control | [5] 93 % of control

CN(C)CCSc1nnc(N)s1
inactive: [7] 100 % of control

O=C(O)CCC1NCCCO1 (stereo unspecified)
inactive: endpoint: mean survival time, dose: 100.0 mg/kg/injection, schedule: Q01DX009 (ip), vehicle: saline 101 % of control | [14] 88 % of control | endpoint: mean survival time, dose: 200.0 mg/kg/injection, schedule: Q01DX009 (ip), vehicle: saline 95 % of control | endpoint: mean survival time, dose: 400.0 mg/kg/injection, schedule: Q01DX009 (ip), vehicle: saline 95 % of control | endpoint: mean survival time, dose: 400.0 mg/kg/injection, schedule: Q04DX003 (ip), vehicle: saline 95 % of control

O=CC(CO)OC(C=O)n1cnc2c(=O)[nH]c(=O)[nH]c21 (stereo unspecified)
inactive: [10] 101 % of control | [11] 106 % of control | [12] 106 % of control | [13] 115 % of control

Clc1c(Cl)c(Cl)c(Cl)c(Cl)c1Cl
inactive: [1] 97 % of control | [2] 97 % of control | [3] 100 % of control | [4] 94 % of control | [9] 103 % of control | [5] 102 % of control

C1C2CC3CC3CC12 (stereo unspecified)
inactive: [2] 93 % of control

O=C(O)CN(CCO)CCN(CC(=O)O)CC(=O)O
inactive: endpoint: mean survival time, dose: 25.0 mg/kg/injection, schedule: Q01DX009 (ip), vehicle: saline with Tween-80 102 % of control | endpoint: mean survival time, dose: 50.0 mg/kg/injection, schedule: Q01DX009 (ip), vehicle: saline with Tween-80 108 % of control | [1] 105 % of control | [14] 104 % of control

CC(C)C1CC2CCC3C(C)(C(=O)O)CCCC3(C)C2CC1CO (stereo unspecified)
inactive: [1] 87 % of control | [3] 91 % of control | [9] 86 % of control

Nc1ccccc1Nc1ccccc1
inactive: endpoint: mean survival time, dose: 100.0 mg/kg/injection, schedule: Q01DX001 (ip), vehicle: saline + alcohol 101 % of control | endpoint: mean survival time, dose: 200.0 mg/kg/injection, schedule: Q01DX001 (ip), vehicle: saline + alcohol 97 % of control

O=Cc1nccc2c1[nH]c1ccccc12
inactive: [2] 95 % of control | [4] 104 % of control | [5] 100 % of control

O=[N+]([O-])c1ccc(/C=C/C2(CCl)OCCO2)cc1
inactive: endpoint: mean survival time, dose: 100.0 mg/kg/injection, schedule: Q01DX001 (ip), vehicle: Klucel (hydroxypropylcellulose) (HPC) 96 % of control | endpoint: mean survival time, dose: 200.0 mg/kg/injection, schedule: Q01DX001 (ip), vehicle: Klucel (hydroxypropylcellulose) (HPC) 92 % of control | endpoint: mean survival time, dose: 400.0 mg/kg/injection, schedule: Q01DX001 (ip), vehicle: Klucel (hydroxypropylcellulose) (HPC) 100 % of control

Oc1ccccc1C=NCCN=Cc1ccccc1O
inactive: [2] 90 % of control | [4] 100 % of control | [5] 92 % of control

Source: PubChem BioAssay AID256 (DTP/NCI, 2004)
